Experimental data from PubChem BioAssay (NCI).
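Test compounds were applied to cells in 96-well plates for 48 hours at 5 doses. Here, GI50 denotes the concentration required for 50% inhibition of growth. At the TGI there is no net growth.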

Tests used:
Assay in all cases: NCI-60 cell line screen, 48 h
OVCAR-3 ovarian = tested on: OVCAR-3 ovarian
DU-145 prostate = tested on: DU-145 prostate
A498 renal = tested on: A498 renal
SK-MEL-28 melanoma = tested on: SK-MEL-28 melanoma
UACC-257 melanoma = tested on: UACC-257 melanoma
SNB-75 CNS = tested on: SNB-75 CNS
MDA-MB-435 = tested on: MDA-MB-435
CCRF-CEM leukemia = tested on: CCRF-CEM leukemia
MOLT-4 leukemia = tested on: MOLT-4 leukemia
MCF7 breast = tested on: MCF7 breast
OVCAR-8 ovarian = tested on: OVCAR-8 ovarian
SF-268 CNS = tested on: SF-268 CNS
NCI-H460 lung = tested on: NCI-H460 lung
SNB-19 CNS = tested on: SNB-19 CNS
ACHN renal = tested on: ACHN renal
NCI-H23 lung = tested on: NCI-H23 lung
BT-549 breast = tested on: BT-549 breast
MDA-MB-231 breast = tested on: MDA-MB-231 breast
HOP-92 NSCLC = tested on: HOP-92 NSCLC
PC-3 prostate = tested on: PC-3 prostate
COLO 205 colon = tested on: COLO 205 colon
KM12 colon = tested on: KM12 colon
HCT-116 colon = tested on: HCT-116 colon
A549 NSCLC = tested on: A549 NSCLC
K-562 leukemia = tested on: K-562 leukemia
HOP-62 NSCLC = tested on: HOP-62 NSCLC
U251 CNS = tested on: U251 CNS
NCI/ADR-RES ovarian = tested on: NCI/ADR-RES ovarian
RXF 393 renal = tested on: RXF 393 renal
OVCAR-4 ovarian = tested on: OVCAR-4 ovarian
EKVX NSCLC = tested on: EKVX NSCLC
TK-10 renal = tested on: TK-10 renal
RPMI-8226 leukemia = tested on: RPMI-8226 leukemia
NCI-H226 lung = tested on: NCI-H226 lung
SF-539 CNS = tested on: SF-539 CNS
786-0 renal = tested on: 786-0 renal
SW-620 colon = tested on: SW-620 colon
SF-295 CNS = tested on: SF-295 CNS
SK-MEL-5 melanoma = tested on: SK-MEL-5 melanoma
M14 melanoma = tested on: M14 melanoma
T-47D breast = tested on: T-47D breast
NCI-H522 lung = tested on: NCI-H522 lung
HT29 colon = tested on: HT29 colon
MALME-3M melanoma = tested on: MALME-3M melanoma
LOX IMVI melanoma = tested on: LOX IMVI melanoma
UACC-62 melanoma = tested on: UACC-62 melanoma
UO-31 renal = tested on: UO-31 renal
SK-OV-3 ovarian = tested on: SK-OV-3 ovarian
SN12C renal = tested on: SN12C renal
OVCAR-5 ovarian = tested on: OVCAR-5 ovarian
SR leukemia = tested on: SR leukemia
HL-60(TB) leukemia = tested on: HL-60(TB) leukemia
HCT-15 colon = tested on: HCT-15 colon
HCC-2998 colon = tested on: HCC-2998 colon
SK-MEL-2 melanoma = tested on: SK-MEL-2 melanoma
IGROV1 ovarian = tested on: IGROV1 ovarian
HS 578T breast = tested on: HS 578T breast

**Q.** What does the source list for `COc1cc(C(=O)Nc2cc(OC)c3ccn(C)c3c2)cc2c1C[C@]1(C)CC[C@@H](O)C(C)(C)[C@H]1O2`?
**A.** GI50 (OVCAR-3 ovarian): 1680 nM; TGI (OVCAR-3 ovarian): 4860 nM; GI50 (DU-145 prostate): 1220 nM; TGI (DU-145 prostate): 29000 nM; GI50 (A498 renal): 149 nM; TGI (A498 renal): 1890 nM; GI50 (SK-MEL-28 melanoma): 1770 nM; TGI (SK-MEL-28 melanoma): 37100 nM; GI50 (UACC-257 melanoma): 1630 nM; TGI (UACC-257 melanoma): 30700 nM; GI50 (SNB-75 CNS): 52.1 nM; TGI (SNB-75 CNS): 2190 nM; GI50 (MDA-MB-435): 1010 nM; TGI (MDA-MB-435): 3380 nM; GI50 (CCRF-CEM leukemia): 92.7 nM; TGI (CCRF-CEM leukemia): > 100000 nM; GI50 (MOLT-4 leukemia): 210 nM; TGI (MOLT-4 leukemia): 1450 nM; GI50 (MCF7 breast): 612 nM; TGI (MCF7 breast): 15100 nM; GI50 (OVCAR-8 ovarian): 2690 nM; TGI (OVCAR-8 ovarian): 58000 nM; GI50 (SF-268 CNS): 1990 nM; TGI (SF-268 CNS): > 100000 nM; GI50 (NCI-H460 lung): 586 nM; TGI (NCI-H460 lung): > 100000 nM; GI50 (SNB-19 CNS): 2700 nM; TGI (SNB-19 CNS): 90200 nM; GI50 (ACHN renal): 944 nM; TGI (ACHN renal): > 100000 nM; GI50 (NCI-H23 lung): 2320 nM; TGI (NCI-H23 lung): 18400 nM; GI50 (BT-549 breast): 558 nM; TGI (BT-549 breast): 30300 nM; GI50 (MDA-MB-231 breast): 1860 nM; TGI (MDA-MB-231 breast): 16500 nM; GI50 (HOP-92 NSCLC): 593 nM; TGI (HOP-92 NSCLC): 6030 nM; GI50 (PC-3 prostate): 195 nM; TGI (PC-3 prostate): > 100000 nM; GI50 (COLO 205 colon): 1400 nM; TGI (COLO 205 colon): 6410 nM; GI50 (KM12 colon): 2080 nM; TGI (KM12 colon): > 100000 nM; GI50 (HCT-116 colon): 733 nM; TGI (HCT-116 colon): 17000 nM; TGI (A549 NSCLC): 33700 nM; GI50 (K-562 leukemia): 597 nM; TGI (K-562 leukemia): > 100000 nM; GI50 (HOP-62 NSCLC): 770 nM; TGI (HOP-62 NSCLC): 13100 nM; GI50 (U251 CNS): 97.8 nM; TGI (U251 CNS): 15300 nM; GI50 (NCI/ADR-RES ovarian): 2340 nM; TGI (NCI/ADR-RES ovarian): 14700 nM; GI50 (RXF 393 renal): 31.7 nM; TGI (RXF 393 renal): 485 nM; GI50 (OVCAR-4 ovarian): 4140 nM; TGI (OVCAR-4 ovarian): > 100000 nM; GI50 (EKVX NSCLC): 1870 nM; TGI (EKVX NSCLC): > 100000 nM; GI50 (TK-10 renal): 3740 nM; TGI (TK-10 renal): 43800 nM; GI50 (RPMI-8226 leukemia): 39.2 nM; TGI (RPMI-8226 leukemia): 1160 nM; GI50 (NCI-H226 lung): 7690 nM; TGI (NCI-H226 lung): > 100000 nM; GI50 (SF-539 CNS): 63.2 nM; TGI (SF-539 CNS): 2220 nM; GI50 (786-0 renal): 87.8 nM; TGI (786-0 renal): 5220 nM; GI50 (SW-620 colon): 1040 nM; TGI (SW-620 colon): 10000 nM; GI50 (SF-295 CNS): 30.2 nM; TGI (SF-295 CNS): 143 nM; GI50 (SK-MEL-5 melanoma): 384 nM; TGI (SK-MEL-5 melanoma): 1720 nM; GI50 (M14 melanoma): 454 nM; TGI (M14 melanoma): 2900 nM; GI50 (T-47D breast): 1800 nM; TGI (T-47D breast): 14800 nM; GI50 (NCI-H522 lung): 1440 nM; TGI (NCI-H522 lung): 7400 nM; GI50 (HT29 colon): 1680 nM; TGI (HT29 colon): 13800 nM; GI50 (MALME-3M melanoma): 2740 nM; TGI (MALME-3M melanoma): > 100000 nM; GI50 (LOX IMVI melanoma): 1010 nM; TGI (LOX IMVI melanoma): 10100 nM; GI50 (UACC-62 melanoma): 257 nM; TGI (UACC-62 melanoma): 1310 nM; GI50 (UO-31 renal): 98.8 nM; TGI (UO-31 renal): 1170 nM; GI50 (SK-OV-3 ovarian): 580 nM; TGI (SK-OV-3 ovarian): 5110 nM; GI50 (SN12C renal): 3930 nM; TGI (SN12C renal): > 100000 nM; GI50 (OVCAR-5 ovarian): 4140 nM; TGI (OVCAR-5 ovarian): > 100000 nM; GI50 (SR leukemia): 83.7 nM; TGI (SR leukemia): > 100000 nM; GI50 (HL-60(TB) leukemia): 74 nM; TGI (HL-60(TB) leukemia): 3430 nM; GI50 (HCT-15 colon): 1050 nM; TGI (HCT-15 colon): > 100000 nM; GI50 (HCC-2998 colon): 3740 nM; TGI (HCC-2998 colon): 49800 nM; GI50 (SK-MEL-2 melanoma): 323 nM; TGI (SK-MEL-2 melanoma): 4480 nM; GI50 (IGROV1 ovarian): 1700 nM; TGI (IGROV1 ovarian): > 100000 nM; GI50 (HS 578T breast): 67.3 nM; TGI (HS 578T breast): 2050 nM
